Laboratory results: US20060142291A1, “Use of formaldehyde and formaldehyde-releasing compounds in a composition for controlling mycobacteria” (priority 2004, published 2006)

Columns and labels:
Test in all cases: Activity of bactericidal solutions against mycobacteria (MIC, 7H9 liquid medium, turbidity and streaking on 7H10 agar)
Format in all cases: cell-based
[1] = system: M. chelonae ATCC 35725; conditions: for Activity at MIC (%) M. chelonae (28° C.): ATCC 35725, 28° C., 3 weeks incubation, % by weight
[2] = system: M. terrae ATCC 15755; conditions: ATCC 15755, 37° C., 3 weeks incubation, % by weight
[3] = system: M. chelonae ATCC 19236; conditions: ATCC 19236, 37° C., 3 weeks incubation, % by weight
[4] = system: M. immunogenum ATCC 700505; conditions: 3 weeks incubation, % by weight; for Activity at MIC (%) M. immunogenum (28° C.): ATCC 700505, 28° C.; for Activity at MIC (%) M. immunogenum (37° C.): ATCC 700505, 37° C.

Row | SMILES | Activity at MIC (%) M. chelonae (28° C.) [1] | usage concentration active against M. chelonae ([1]; strain and temperature not stated) | Activity at MIC (%) M. terrae (37° C.) [2] | Activity at MIC (%) M. chelonae (37° C.) [3] | Activity at MIC (%) M. immunogenum (28° C.) [4] | Activity at MIC (%) M. immunogenum (37° C.) [4]
1 | OCCN1CN(CCO)CN(CCO)C1 [Comparison 1, 2,2′,2″-(hexahydro-1,3,5-triazine-1,3,5-triyl)triethanol] | 0.3% | 0.3 % by weight | 0.3% | 0.3% | ≦0.075% | ≦0.075%
2 | CCCCCCCCn1sccc1=O [Comparison 2, 2-octyl-3(2H)-isothiazol-3-one] | >0.3% |  | >0.3% | >0.3% | >0.3% | >0.3%
